Data reported in patent US20230303513A1, “OXOPYRROLIDINE UREA FPR2 AGONISTS” (BRISTOL-MYERS SQUIBB COMPANY, priority 2020, published 2023).
Where two headings read alike, the source gives them in different places.

What was measured:
human FPR1 = human FPR1 (Homo sapiens (Human), UniProt P21462); assay: FPR1 cyclic adenosine monophosphate (cAMP) assay; assay type: cell-based; conditions: read-out: hFPR1 cAMP EC50
Excerpt: (§1) N-formyl peptide receptors (FPRs) are a family of chemo attractant receptors that facilitate leukocyte response during inflammation. FPRs belong to the seven-transmembrane G protein-coupled receptor superfamily and are linked to inhibitory G-proteins (Gi). Three family members (FPR1, FPR2 and FPR3) have been identified in humans and are predominantly found in myeloid cells with varied distribution and have also been reported in multiple organs and tissues. After agonist binding, the FPRs activate a multitude of physiological pathways, such as intra cellular signaling transduction, Ca^21 mobilization and transcription. The family interacts with a diverse set of ligands that includes proteins, polypeptides and fatty acid metabolites which activate both pro-inflammatory and pro-resolution downstream responses. FPR2 and FPR1 Cyclic Adenosine Monophosphate (cAMP) Assays were used to measure the activity of the compounds in this patent.
(§2) FPR2 and FPR1 Cyclic Adenosine Monophosphate (cAMP) Assays. A mixture of forskolin (5 μM final for FPR2 or 10 μM final for FPR1) and IBMX (200 μM final) were added to 384-well Proxiplates (Perkin-Elmer) pre-dotted with test compounds in DMSO (1% final) at final concentrations in the range of 0.020 nM to 100 μM. Chinese Hamster Ovary cells (CHO) overexpressing human FPR1 or human FPR2 receptors were cultured in F-12 (Ham's) medium supplemented with 10% qualified FBS, 250 μg/ml zeocin and 300 μg/ml hygromycin (Life Technologies). Reactions were initiated by adding 2,000 human FPR2 cells per well or 4,000 human FPR1 cells per well in Dulbecco's PBS (with calcium and magnesium) (Life Technologies) supplemented with 0.1% BSA (Perkin-Elmer). The reaction mixtures were incubated for 30 min at room temperature. The level of intracellular cAMP was determined using the HTRF HiRange cAMP assay reagent kit (Cisbio) according to manufacturer's instruction. Solutions of cryptate conjugated anti-cAMP and d2 flurorophore-labelled cAMP were made in a supplied lysis buffer separately. Upon completion of the reaction, the cells were lysed with equal volume of the d2-cAMP solution and anti-cAMP solution. After a 1-h room temperature incubation, time-resolved fluorescence intensity was measured using the Envision (Perkin-Elmer) at 400 nm excitation and dual emission at 590 nm and 665 nm. A calibration curve was constructed with an external cAMP standard at concentrations ranging from 1 μM to 0.1 μM by plotting the fluorescent intensity ratio from 665 nm emission to the intensity from the 590 nm emission against cAMP concentrations. The potency and activity of a compound to inhibit cAMP production was then determined by fitting to a 4-parametric logistic equation from a plot of cAMP level versus compound concentrations.

human FPR2 = human FPR2 (Homo sapiens (Human), UniProt P25090); assay: FPR2 cyclic adenosine monophosphate (cAMP) assay; assay type: cell-based; conditions: read-out: hFPR2 cAMP2 EC50
Excerpt: as §1, §2

[1] = CHO cells overexpressing human FPR1, forskolin 10 μM, IBMX 200 μM, inhibition of cAMP production, HTRF
[2] = CHO cells overexpressing human FPR2, forskolin 5 μM, IBMX 200 μM, inhibition of cAMP production, HTRF

Sequence of human FPR2 (P25090 whole entry): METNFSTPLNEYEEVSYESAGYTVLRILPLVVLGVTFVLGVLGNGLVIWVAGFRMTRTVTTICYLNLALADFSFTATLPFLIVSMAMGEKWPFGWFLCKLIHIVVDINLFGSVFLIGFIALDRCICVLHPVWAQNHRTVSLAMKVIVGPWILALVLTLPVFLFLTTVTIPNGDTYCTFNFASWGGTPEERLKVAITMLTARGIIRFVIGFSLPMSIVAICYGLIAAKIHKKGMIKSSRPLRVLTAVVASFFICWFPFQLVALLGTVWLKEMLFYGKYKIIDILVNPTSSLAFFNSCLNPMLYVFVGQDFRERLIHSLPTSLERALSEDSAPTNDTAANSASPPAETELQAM
Sequence of human FPR1 (P21462 whole entry): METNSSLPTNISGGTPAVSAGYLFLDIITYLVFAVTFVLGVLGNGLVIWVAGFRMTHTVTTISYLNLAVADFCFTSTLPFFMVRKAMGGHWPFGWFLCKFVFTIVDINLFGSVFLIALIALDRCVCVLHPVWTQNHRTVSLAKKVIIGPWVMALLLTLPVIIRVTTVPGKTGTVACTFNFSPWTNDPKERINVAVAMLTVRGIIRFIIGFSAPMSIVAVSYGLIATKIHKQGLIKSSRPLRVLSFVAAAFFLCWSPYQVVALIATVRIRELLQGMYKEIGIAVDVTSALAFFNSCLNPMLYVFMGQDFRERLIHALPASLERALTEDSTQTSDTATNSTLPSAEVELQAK

Row | Structure (SMILES) | EC50 (human FPR1; [1]) [nM] | EC50 (human FPR2; [2]) [nM] | EC50 (human FPR1) [nM] | EC50 (human FPR2) [nM]
1 | CCn1cccc(N2C[C@@H](c3c(F)cc(OC)cc3F)[C@H](NC(=O)NC3CCc4cc(OC)ccc4C3)C2=O)c1=O (stereo partly drawn) [Example 41] | 0.5 | 5.6 | – | –
2 | CCn1cccc(N2C[C@@H](c3ccc(OC)cc3)[C@H](NC(=O)NC3CCc4cc(Cl)ccc4C3)C2=O)c1=O (stereo partly drawn) [Example 9] | 6 | 0.7 | – | –
3 | COc1cc(F)c([C@@H]2CN(c3ncccc3C(F)(F)F)C(=O)[C@H]2NC(=O)NC2CCc3cc(OC)ccc3C2)c(F)c1 (stereo partly drawn) [Example 64] | 54 | 53 | – | –
4 | COCC(CO)n1cccc(N2C[C@@H](c3c(F)cc(OC)cc3F)[C@H](NC(=O)NC3CCc4cc(OC)ccc4C3)C2=O)c1=O (single isomer, unassigned) [Example 3] | 20 | 6 | – | –
5 | COc1cc(F)c([C@@H]2CN(c3nccc(N4CCOCC4)c3C(F)(F)F)C(=O)C2NC(=O)N[C@H]2CC[C@H](C(F)F)CC2)c(F)c1 (stereo partly drawn) [Example 1, 1-((3S,4R)-4-(2,6-Difluoro-4-methoxyphenyl)-1-(4-morpholino-3-(trifluoromethyl)pyridin-2-yl)-2-oxopyrrolidin-3-yl)-3-((1r,4S)-4-(difluoromethyl)cyclohexyl) urea] | 6800 | 14.8 | – | –
6 | COCCn1cccc(N2C(=O)[C@@H](NC(=O)NC3CCc4cc(OC)ccc4C3(C)C)[C@H](c3c(F)cc(OC)cc3F)[C@@H]2C)c1=O (stereo partly drawn) [Example 40] | 200 | 5.3 | – | –
7 | COc1cc(F)c([C@@H]2CN(c3ncccc3C(F)(F)F)C(=O)[C@H]2NC(=O)N[C@H]2CC[C@H](C(F)F)CC2)c(F)c1 [Example 32] | – | – | 1200 | 3.9
8 | COCCn1cccc(N2C[C@@H](c3c(F)cc(OC)cc3F)[C@H](NC(=O)NC3CCc4cc(Cl)ccc4C3)C2=O)c1=O (stereo partly drawn) [Example 17] | 0.6 | 1.7 | – | –
9 | COCC(CO)n1cccc(N2C[C@@H](c3c(F)cc(OC)cc3F)[C@H](NC(=O)NC3CCc4cc(OC)ccc4C3)C2=O)c1=O (single isomer, unassigned) [Example 2] | 40 | 20 | – | –
10 | CCn1cccc(N2C[C@@H](c3ccc(OC)cc3)[C@H](NC(=O)NC3CCc4cc(OC)ccc4C3)C2=O)c1=O (stereo partly drawn) [Example 13] | – | 1.3 | – | –
11 | COCCn1cccc(N2C[C@@H](c3c(F)cc(OC)cc3F)[C@H](NC(=O)NC3CCc4cc(OC)ccc4C3(C)C)C2=O)c1=O (stereo partly drawn) [Example 54] | 8.8 | 19 | – | –
12 | COCCn1cccc(N2C[C@@H](c3ccc(Cl)cc3)[C@H](NC(=O)NC3CCc4cc(OC)ccc4C3)C2=O)c1=O (stereo partly drawn) [Example 55] | 0.5 | 24 | – | –
13 | COc1cc(F)c([C@@H]2CN(c3nccc(NCC4CCOC4)c3C(F)(F)F)C(=O)[C@H]2NC(=O)N[C@H]2CC[C@H](C(F)F)CC2)c(F)c1 (single isomer, unassigned) [Example 73] | > 1000 | 320 | – | –
14 | COc1cc(F)c([C@@H]2CN(c3ncccc3C(F)(F)F)C(=O)[C@H]2NC(=O)NC2COc3cc(OC)ccc3C2)c(F)c1 (stereo partly drawn) [Example 28] | 3 | 3.3 | – | –
15 | COc1cc(F)c([C@@H]2CN(c3nccc(NCC4CCOC4)c3C(F)(F)F)C(=O)[C@H]2NC(=O)N[C@H]2CC[C@H](C(F)F)CC2)c(F)c1 (single isomer, unassigned) [Example 74] | > 1000 | 26 | – | –
16 | COc1cc(F)c([C@@H]2CN(c3cccn(CC(O)C(F)(F)F)c3=O)C(=O)[C@H]2NC(=O)NC2CCc3cc(OC)ccc3C2)c(F)c1 (single isomer, unassigned) [Example 77] | – | 15 | – | –
17 | COCCn1ccc(OC)c(N2C[C@@H](c3c(F)cc(OC)cc3F)[C@H](NC(=O)NC3CCc4cc(Cl)ccc4C3)C2=O)c1=O (stereo partly drawn) [Example 38] | 1.3 | 4.5 | – | –
18 | COc1cc(F)c([C@@H]2CN(c3nccc(N4CCN(C)CC4)c3C(F)(F)F)C(=O)[C@H]2NC(=O)N[C@H]2CC[C@H](C(F)F)CC2)c(F)c1 [Example 30] | 2500 | 3.6 | – | –
19 | COCCn1cccc(N2C[C@@H](c3ccc(OC)cc3)[C@H](NC(=O)NC3CCc4cc(OC)ccc4C3)C2=O)c1=O (stereo partly drawn) [Example 42] | 1.7 | 5.8 | – | –
20 | COc1cc(F)c([C@@H]2CN(c3ncccc3C(F)(F)F)C(=O)[C@H]2NC(=O)NC2CCc3cc(OC)ccc3C2)c(F)c1 (stereo partly drawn) [Example 46] | 1.5 | 7.1 | – | –
21 | COc1cc(F)c([C@H]2[C@H](NC(=O)NC3CCc4cc(OC)ccc4C3(C)C)C(=O)N(c3ncccc3C(F)(F)F)[C@H]2C)c(F)c1 (stereo partly drawn) [Example 59] | 470 | 29 | – | –
22 | COCCn1cccc(N2C[C@@H](c3ccc(OC)cc3)[C@H](NC(=O)NC3CCc4cc(Cl)ccc4C3)C2=O)c1=O (stereo partly drawn) [Example 5] | – | 0.2 | – | –
23 | COCCn1cccc(N2C(=O)[C@@H](NC(=O)NC3CCc4cc(OC)ccc4C3)[C@H](c3c(F)cc(OC)cc3F)[C@@H]2C)c1=O (stereo partly drawn) [Example 26] | – | 2.8 | – | –

The next lines start with the values.

Row | EC50 (human FPR1; [1]) [nM] | EC50 (human FPR2; [2]) [nM] | EC50 (human FPR1) [nM] | EC50 (human FPR2) [nM] | Structure (SMILES)
24 | 5.3 | 4 | – | – | COc1cc(F)c([C@@H]2CN(c3cccn(C(F)F)c3=O)C(=O)[C@H]2NC(=O)NC2CCc3cc(OC)ccc3C2)c(F)c1 (single isomer, unassigned) [Example 95]
25 | > 10000 | 9 | – | – | COc1cc(F)c([C@@H]2CN(c3nccc(NC4CCOC4)c3C(F)(F)F)C(=O)[C@H]2NC(=O)N[C@H]2CC[C@H](C(F)F)CC2)c(F)c1 (single isomer, unassigned) [Example 100]
26 | 1.5 | 5.9 | – | – | COCC(CO)n1cccc(N2C[C@@H](c3c(F)cc(OC)cc3F)[C@H](NC(=O)NC3CCc4cc(OC)ccc4C3)C2=O)c1=O (stereo partly drawn) [Example 81]
27 | 0.8 | 9.9 | – | – | COCC(CO)n1cccc(N2C[C@@H](c3c(F)cc(OC)cc3F)[C@H](NC(=O)NC3CCc4cc(OC)ccc4C3)C2=O)c1=O (stereo partly drawn) [Example 82]
28 | 100 | 50 | – | – | COc1cc(F)c([C@@H]2CN(c3cccn(CC(O)C(F)(F)F)c3=O)C(=O)[C@H]2NC(=O)NC2CCc3cc(OC)ccc3C2)c(F)c1 (single isomer, unassigned) [Example 78]
29 | 3400 | 4.6 | – | – | COc1cc(F)c([C@@H]2CN(c3nccc(N4C[C@@H]5C[C@H]4CN5C)c3C(F)(F)F)C(=O)[C@H]2NC(=O)N[C@H]2CC[C@H](C(F)F)CC2)c(F)c1 (single isomer, unassigned) [Example 96]
30 | 730 | 6.2 | – | – | COc1cc(F)c([C@@H]2CN(c3nccc(NC4CCOC4)c3C(F)(F)F)C(=O)[C@H]2NC(=O)N[C@H]2CC[C@H](C(F)F)CC2)c(F)c1 (single isomer, unassigned) [Example 99]
31 | 1700 | 14 | – | – | COc1cc(F)c([C@@H]2CN(c3nccc(NCC4CCCO4)c3C(F)(F)F)C(=O)[C@H]2NC(=O)N[C@H]2CC[C@H](C(F)F)CC2)c(F)c1 (stereo partly drawn) [Example 93]
32 | 7.6 | 4.4 | – | – | COCCn1nccc(N2C[C@@H](c3c(F)cc(OC)cc3F)[C@H](NC(=O)NC3CCc4cc(OC)ccc4C3)C2=O)c1=O (stereo partly drawn) [Example 85]
33 | 3.7 | 4 | – | – | COc1cc(F)c([C@H]2[C@H](NC(=O)NC3CCc4cc(OC)ccc4C3)C(=O)N(c3cccn(CCO)c3=O)[C@H]2C)c(F)c1 (single isomer, unassigned) [Example 90]
34 | > 5000 | 7.2 | – | – | COc1cc(F)c([C@@H]2CN(c3nccc(NCCS(C)(=O)=O)c3C(F)(F)F)C(=O)[C@H]2NC(=O)N[C@H]2CC[C@H](C(F)F)CC2)c(F)c1 [Example 98]
35 | 1400 | 0.4 | – | – | COc1cc(F)c([C@@H]2CN(c3nccc(N4C[C@@H]5C[C@H]4CN5C)c3C(F)(F)F)C(=O)[C@H]2NC(=O)N[C@H]2CC[C@H](C(F)F)CC2)c(F)c1 (single isomer, unassigned) [Example 97]
36 | 4.3 | 7.1 | – | – | COc1cc(F)c([C@H]2[C@H](NC(=O)NC3CCc4cc(OC)ccc4C3)C(=O)N(c3cccn(CCO)c3=O)[C@H]2C)c(F)c1 (single isomer, unassigned) [Example 89]
37 | – | 7.3 | – | – | COc1cc(F)c([C@@H]2CN(c3cccn(CC(O)C(F)(F)F)c3=O)C(=O)[C@H]2NC(=O)NC2CCc3cc(OC)ccc3C2)c(F)c1 (stereo partly drawn) [Example 79]
